Results reported in patent US8546442B2, “Pyrazolopiperidine compounds as CCR1 receptor antagonists” (Boehringer Ingelheim International GmbH, priority 2010, dated 2013).

These compounds were tested against T1, CCR1 (Homo sapiens, UniProt P32246) (assay: calcium flux in CCR1 transfected cells, Method B (Calcium 4 dye, HAMAMATSU FDSS6000)). Conditions: cells stably expressing recombinant CCR1 and G-alpha-16, MIP-1alpha at EC80.
T1 sequence (P32246 1-355): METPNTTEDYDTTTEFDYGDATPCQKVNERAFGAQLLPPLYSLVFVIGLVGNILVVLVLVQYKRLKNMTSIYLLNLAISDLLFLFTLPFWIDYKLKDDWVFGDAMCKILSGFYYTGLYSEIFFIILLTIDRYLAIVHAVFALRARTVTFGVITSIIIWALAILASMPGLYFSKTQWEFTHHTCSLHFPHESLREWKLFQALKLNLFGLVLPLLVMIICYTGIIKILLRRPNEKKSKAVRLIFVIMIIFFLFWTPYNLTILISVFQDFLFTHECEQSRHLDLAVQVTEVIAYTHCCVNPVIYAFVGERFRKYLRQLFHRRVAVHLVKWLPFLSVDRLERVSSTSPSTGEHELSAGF
Assay type: cell-based
Experimental: Compounds are assessed for the ability to block the interaction of CCR1 and MIP-1α in a functional cellular assay measuring calcium flux in CCR1 transfected cells.
Method B: Non-adherent cells purchased from Chemicon Corporation (HTS005C), stably expressing recombinant CCR1 and G-alpha-16 are grown in RPMI 1640 medium (Mediatech 10-080-CM) supplemented with 10% FBS, 0.4 mg/mL Geneticin and penicillin/streptomycin. On the day of the assay, the cells are loaded with Calcium 4 dye (Molecular Devices R7448) with Probenecid (Invitrogen P346400) at 8E5 cells/mL for 1 hour at room temperature. After 1 hour, they are seeded in a 384-well tissue culture-treated plate at a density of 20,000 cells/well. Appropriately diluted test compound is added to the well to achieve a top concentration of 3,000 nM (diluted 4-fold with 10 doses total). The final concentration of DMSO is 1%. The buffer is HBSS (Invitrogen 14025) with 20 mM HEPES at pH 7.4. The cells incubate 30 minutes at 37 C and then 30 minutes at room temperature. The plates are transferred to the HAMAMATSU FDSS6000 where MIP-1alpha in 1% BSA is added at the EC80 final concentration. All plates must be read within 4 hours of the start of dye-loading. Wells+/−MIP-1alpha containing diluted DMSO instead of compound serve as the controls. Data are analyzed using Activity Base software.

| Compound | IC50 [nM] |
| --- | --- |
| CCC[C@H](NC(=O)N1c2cnn(-c3ccc(F)cc3)c2CCC1C(F)(F)F)c1cc(S(C)(=O)=O)ccc1F (single isomer, unassigned) [Example 77] | 37 |
| CCC[C@H](NC(=O)N1c2cnn(-c3ccc(F)cc3)c2CCC1C)c1ccnc(S(C)(=O)=O)c1 (single isomer, unassigned) [Example 80] | 31 |
| Cc1ccc(CNC(=O)N2CCCc3c2cnn3-c2ccc(F)cc2)cc1 [Example 5] | 90 |
| O=C(NCc1ccccc1F)N1CCCc2c1cnn2-c1ccc(F)cc1 [Example 8] | 266 |
| O=C(NCc1cccc(F)c1)N1CCCc2c1cnn2-c1ccc(F)cc1 [Example 9] | 108 |
| COc1ccc(CNC(=O)N2CCCc3c2cnn3-c2ccc(F)cc2)cc1 [Example 10] | 266 |
| COc1ccccc1CNC(=O)N1CCCc2c1cnn2-c1ccc(F)cc1 [Example 11] | 610 |
| O=C(NCc1ccccc1Cl)N1CCCc2c1cnn2-c1ccc(F)cc1 [Example 12] | 138 |
| O=C(NCc1ccc(Cl)cc1)N1CCCc2c1cnn2-c1ccc(F)cc1 [Example 13] | 45 |
| COc1ccc([C@H](C)NC(=O)N2CCCc3c2cnn3-c2ccc(F)cc2)cc1 [Example 14] | 102 |
| O=C(NCc1ccc(Cl)cc1Cl)N1CCCc2c1cnn2-c1ccc(F)cc1 [Example 16] | 12 |
| Cc1cccc(CNC(=O)N2CCCc3c2cnn3-c2ccc(F)cc2)c1 [Example 18] | 131 |
| COc1cccc(CNC(=O)N2CCCc3c2cnn3-c2ccc(F)cc2)c1 [Example 20] | 91 |
| CNS(=O)(=O)c1cccc(CNC(=O)N2CCCc3c2cnn3-c2ccc(F)cc2)c1 [Example 29] | 16 |
| CS(=O)(=O)c1ccc(CNC(=O)N2CCCc3c2cnn3-c2ccc(F)cc2)cn1 [Example 30] | 94 |
| O=C(NCc1ccc(Br)cc1)N1CCCc2c1cnn2-c1ccc(F)cc1 [Example 37] | 40 |
| CS(=O)(=O)c1ccc(CNC(=O)N2CCCc3c2cnn3-c2ccc(F)cc2)cc1O [Example 43, 1-(4-Fluorophenyl)-1,5,6,7-tetrahydro-pyrazolo[4,3-b]pyridine-4-carboxylic acid 3-hydroxy-4-methanesulfonyl-benzylamide] | 25 |

Further compounds by falling IC50, results first:

| IC50 [nM] | Compound |
| --- | --- |
| 453 | C[C@H](NC(=O)N1CCCc2c1cnn2-c1ccc(F)cc1)c1ccccc1 [Example 2] |
| 395 | O=C(NCc1ccccc1)N1CCCc2c1cnn2-c1ccc(F)cc1 [Example 19] |
| 283 | Cc1ccccc1CNC(=O)N1CCCc2c1cnn2-c1ccc(F)cc1 [Example 4] |
| 183 | O=C(NCc1ccc(F)cc1)N1CCCc2c1cnn2-c1ccc(F)cc1 [Example 7] |
| 126 | O=C(NCCc1ccccc1)N1CCCc2c1cnn2-c1ccc(F)cc1 [Example 3] |
| 125 | C[C@@H](NC(=O)N1CCCc2c1cnn2-c1ccc(F)cc1)c1ccccc1 [Example 6] |
| 115 | O=C(Nc1cccc(C(F)(F)F)c1)N1CCCc2c1cnn2-c1ccc(F)cc1 [Example 15] |
| 68 | O=C(NCc1ccc(S(=O)(=O)N2CCOCC2)cc1)N1CCCc2c1cnn2-c1ccc(F)cc1 [Example 27] |
| 34 | CS(=O)(=O)c1cc(CNC(=O)N2CCCc3c2cnn3-c2ccc(F)cc2)ccn1 [Example 32] |
| 4 | CCC[C@H](NC(=O)N1c2cnn(-c3ccc(F)cc3)c2CCC1C)c1ccnc(S(C)(=O)=O)c1 (single isomer, unassigned) [Example 81] |
| 1 | O=C(NCc1ccc(Cl)c(Cl)c1)N1CCCc2c1cnn2-c1ccc(F)cc1 [Example 17] |
| 1 | O=C(NCc1cccc(C(F)(F)F)c1)N1CCCc2c1cnn2-c1ccc(F)cc1 [Example 21, 1-(4-Fluorophenyl)-N-[3-(trifluoromethyl)benzyl]-1,5,6,7-tetrahydro-4H-pyrazolo[4,3-b]pyridine-4-carboxamide] |
